{"source": "patent US7705029B2", "about": "(Synta Pharmaceuticals Corp., priority 2004, dated 2010)", "test_system": "IL-2 production in a Human Jurkat Cell Line", "assay": "Inhibition of IL-2 production in PHA-stimulated Jurkat cells (IL-2 ELISA)", "assay_type": "cell-based", "conditions": "read-out: IC50 (concentration at which IL-2 release is inhibited by 50%)", "experimental": "Jurkat cells (ATCC, Cat# TIB-152) were grown in RPMI1640 medium (ATCC, Cat# 30-2001) containing 10% of FBS (ATCC, Cat# 30-2020). For compound screening, Jurkat cells were plated in 96-well plates at a density of 0.5 million cells per well in RPMI1640 medium containing 1% of FBS. Then, various concentrations of each test compound were added to the cell plates followed by addition of PHA (Sigma, Cat# L-9017) at a final concentration of 2.5 μg/ml to stimulate IL-2 production. Cells were then incubated at 37° C. (+5% CO2) for 20 hours before ELISA assay. After 20 hours incubation, cell plates were centrifuged at 500-800 g for 5 minutes and the supernatants was collected for IL-2 detection using the human IL-2 ELISA kit purchased from Cell Sciences (Cat# 851.500.020). The ELISA assay for IL-2 production was done in 96-well plates using a protocol provided by Cell Sciences.\nThe IC50 (i.e., the concentration at which IL-2 release is inhibited by 50%) was determined and the results are shown in the Table. […] The designation “A” means an IC50 less than 0.010 μM; the designation B means an IC50 between 0.010 and 1.0 μM; and the designation “C” mean an IC50 greater than 1 μM.", "key": {"[1]": {"conditions": "Jurkat cells, PHA 2.5 μg/ml, 20 hours incubation, human IL-2 ELISA of supernatant"}}, "note": "Where two headings read alike, the source gives them in different places."}
{"smiles": "N#C/C(=C\\c1ccc(-n2nc(C(F)(F)F)cc2OC(F)F)cc1)c1cccc(F)c1F", "note": "[Compound 1]", "values": [{"measurement": "IC50", "setting": "Homo sapiens, Jurkat, 20 h", "value": "10 to 1000", "unit": "nM"}]}
{"smiles": "N#CC(=Cc1ccc(-n2nc(C(F)(F)F)cc2OC(F)F)cc1)c1ccccc1F", "note": "[Compound 2, 3-[4-(5-Difluoromethoxy-3-trifluoromethyl-pyrazol-1-yl)-phenyl]-2-(2-fluoro-phenyl)-acrylonitrile]", "values": [{"measurement": "IC50", "setting": "Homo sapiens, Jurkat, 20 h", "value": "10 to 1000", "unit": "nM"}]}
{"smiles": "N#CC(=Cc1ccc(-n2nc(C(F)(F)F)cc2OC(F)F)cc1)c1cc(F)ccc1F", "note": "[Compound 3, 3-[4-(5-Difluoromethoxy-3-trifluoromethyl-pyrazol-1-yl)-phenyl]-2-(2,5-difluoro-phenyl)-acrylonitrile]", "values": [{"measurement": "IC50", "setting": "Homo sapiens, Jurkat, 20 h", "value": "10 to 1000", "unit": "nM"}]}
{"smiles": "N#C/C(=C\\c1ccc(-n2nc(C(F)(F)F)cc2C(F)(F)F)cc1)c1cccc(F)c1F", "note": "[Compound 4, 3-[4-(3,5-Bis-trifluoromethyl-pyrazol-1-yl)-phenyl]-2-(2,3-difluoro-phenyl)-acrylonitrile]", "values": [{"measurement": "IC50", "setting": "Homo sapiens, Jurkat, 20 h", "value": "< 10", "unit": "nM"}]}
{"smiles": "N#CC(=Cc1ccc(-n2nc(C(F)(F)F)cc2C(F)(F)F)cc1)c1cc(F)ccc1F", "note": "[Compound 5, 3-[4-(3,5-Bis-trifluoromethyl-pyrazol-1-yl)-phenyl]-2-(2,5-difluoro-phenyl)-acrylonitrile]", "values": [{"measurement": "IC50", "setting": "Homo sapiens, Jurkat, 20 h", "value": "< 10", "unit": "nM"}]}
{"smiles": "N#CC(=Cc1ccc(-n2nc(C(F)(F)F)cc2C(F)(F)F)cc1)c1ccccc1F", "note": "[Compound 6, 3-[4-(3,5-Bis-trifluoromethyl-pyrazol-1-yl)-phenyl]-2-(2-fluoro-phenyl)-acrylonitrile]", "values": [{"measurement": "IC50", "setting": "Homo sapiens, Jurkat, 20 h", "value": "10 to 1000", "unit": "nM"}]}
{"smiles": "N#CC(=Cc1ccc(-n2nc(C(F)(F)F)cc2C(F)(F)F)cc1)c1ccc(F)c(F)c1F", "note": "[Compound 8, 3-[4-(3,5-Bis-trifluoromethyl-pyrazol-1-yl)-phenyl]-2-(2,3,4-trifluoro-phenyl)-acrylonitrile]", "values": [{"measurement": "IC50", "setting": "Homo sapiens, Jurkat, 20 h", "value": "10 to 1000", "unit": "nM"}]}
{"smiles": "N#CC(=Cc1ccc(-n2nc(C(F)(F)F)cc2C(F)(F)F)cc1)c1c(F)ccc(F)c1F", "note": "[Compound 9, 3-[4-(3,5-Bis-trifluoromethyl-pyrazol-1-yl)-phenyl]-2-(2,3,6-trifluoro-phenyl)-acrylonitrile]", "values": [{"measurement": "IC50", "setting": "Homo sapiens, Jurkat, 20 h", "value": "< 10", "unit": "nM"}]}
{"smiles": "N#CC(=Cc1ccc(-n2nc(C(F)(F)F)cc2C(F)(F)F)cc1)c1cc(F)c(F)c(F)c1", "note": "[Compound 10, 3-[4-(3,5-Bis-trifluoromethyl-pyrazol-1-yl)-phenyl]-2-(3,4,5-trifluoro-phenyl)-acrylonitrile]", "values": [{"measurement": "IC50", "setting": "Homo sapiens, Jurkat, 20 h", "value": "10 to 1000", "unit": "nM"}]}
{"smiles": "N#CC(=Cc1ccc(-n2nc(C(F)(F)F)cc2C(F)(F)F)cc1)c1cc(F)c(F)cc1F", "note": "[Compound 12, 3-[4-(3,5-Bis-trifluoromethyl-pyrazol-1-yl)-phenyl]-2-(3,4,6-trifluoro-phenyl)-acrylonitrile]", "values": [{"measurement": "IC50", "setting": "Homo sapiens, Jurkat, 20 h", "value": "10 to 1000", "unit": "nM"}]}
{"smiles": "N#CC(=Cc1ccc(-n2nc(C(F)(F)F)cc2C(F)(F)F)cc1Cl)c1cccc(F)c1F", "note": "[Compound 13, 3-[4-(3,5-Bis-trifluoromethyl-pyrazol-1-yl)-2-chloro-phenyl]-2-(2,3-difluoro-phenyl)-acrylonitrile]", "values": [{"measurement": "IC50", "setting": "[1]", "value": "> 1000", "unit": "nM"}]}
{"smiles": "N#CC(=Cc1ccccc1-n1nc(C(F)(F)F)cc1C(F)(F)F)c1cccc(F)c1F", "note": "[Compound 14, 3-[2-(3,5-Bis-trifluoromethyl-pyrazol-1-yl)-phenyl]-2-(2,3-difluoro-phenyl)-acrylonitrile]", "values": [{"measurement": "IC50", "setting": "[1]", "value": "> 1000", "unit": "nM"}]}
{"smiles": "Cc1cc(C(F)(F)F)n(-c2ccc(/C=C(\\C#N)c3cc(F)ccc3F)cc2)n1", "note": "[Compound 15, 2-(2,5-Difluoro-phenyl)-3-[4-(3-methyl-5-trifluoromethyl-pyrazol-1-yl)-phenyl]-acrylonitrile]", "values": [{"measurement": "IC50", "setting": "Homo sapiens, Jurkat, 20 h", "value": "10 to 1000", "unit": "nM"}]}
{"smiles": "N#CC(=Cc1ccc(-n2ccc(C(F)(F)F)n2)cc1)c1ccc(F)cc1F", "note": "[Compound 16, 2-(2,4-Difluoro-phenyl)-3-[4-(3-trifluoromethyl-pyrazol-1-yl)-phenyl]-acrylonitrile]", "values": [{"measurement": "IC50", "setting": "Homo sapiens, Jurkat, 20 h", "value": "> 1000", "unit": "nM"}]}
{"smiles": "Cc1cc(C(F)(F)F)n(-c2ccc(C=C(C#N)c3cccc(F)c3F)cc2)n1", "note": "[Compound 18, 2-(2,3-Difluoro-phenyl)-3-[4-(3-methyl-5-trifluoromethyl-pyrazol-1-yl)-phenyl]-acrylonitrile]", "values": [{"measurement": "IC50", "setting": "Homo sapiens, Jurkat, 20 h", "value": "10 to 1000", "unit": "nM"}]}
